Experimental data: PMC9611727, “Optimization of a Novel Mandelamide-Derived Pyrrolopyrimidine Series of PERK Inhibitors” (Pharmaceutics, 2022)

Legend:
Assay in all cases: scanMAX kinase panel
Format in all cases: binding
[1] = biological target: T1, YSK4 (Homo sapiens, UniProt Q56UN5); conditions: read-out: % Control; for remaining binding at 1 µM: 1000 nM
T1 construct: purchased DiscoverX (scanMAX panel)
T1 sequence (Q56UN5 1-1328): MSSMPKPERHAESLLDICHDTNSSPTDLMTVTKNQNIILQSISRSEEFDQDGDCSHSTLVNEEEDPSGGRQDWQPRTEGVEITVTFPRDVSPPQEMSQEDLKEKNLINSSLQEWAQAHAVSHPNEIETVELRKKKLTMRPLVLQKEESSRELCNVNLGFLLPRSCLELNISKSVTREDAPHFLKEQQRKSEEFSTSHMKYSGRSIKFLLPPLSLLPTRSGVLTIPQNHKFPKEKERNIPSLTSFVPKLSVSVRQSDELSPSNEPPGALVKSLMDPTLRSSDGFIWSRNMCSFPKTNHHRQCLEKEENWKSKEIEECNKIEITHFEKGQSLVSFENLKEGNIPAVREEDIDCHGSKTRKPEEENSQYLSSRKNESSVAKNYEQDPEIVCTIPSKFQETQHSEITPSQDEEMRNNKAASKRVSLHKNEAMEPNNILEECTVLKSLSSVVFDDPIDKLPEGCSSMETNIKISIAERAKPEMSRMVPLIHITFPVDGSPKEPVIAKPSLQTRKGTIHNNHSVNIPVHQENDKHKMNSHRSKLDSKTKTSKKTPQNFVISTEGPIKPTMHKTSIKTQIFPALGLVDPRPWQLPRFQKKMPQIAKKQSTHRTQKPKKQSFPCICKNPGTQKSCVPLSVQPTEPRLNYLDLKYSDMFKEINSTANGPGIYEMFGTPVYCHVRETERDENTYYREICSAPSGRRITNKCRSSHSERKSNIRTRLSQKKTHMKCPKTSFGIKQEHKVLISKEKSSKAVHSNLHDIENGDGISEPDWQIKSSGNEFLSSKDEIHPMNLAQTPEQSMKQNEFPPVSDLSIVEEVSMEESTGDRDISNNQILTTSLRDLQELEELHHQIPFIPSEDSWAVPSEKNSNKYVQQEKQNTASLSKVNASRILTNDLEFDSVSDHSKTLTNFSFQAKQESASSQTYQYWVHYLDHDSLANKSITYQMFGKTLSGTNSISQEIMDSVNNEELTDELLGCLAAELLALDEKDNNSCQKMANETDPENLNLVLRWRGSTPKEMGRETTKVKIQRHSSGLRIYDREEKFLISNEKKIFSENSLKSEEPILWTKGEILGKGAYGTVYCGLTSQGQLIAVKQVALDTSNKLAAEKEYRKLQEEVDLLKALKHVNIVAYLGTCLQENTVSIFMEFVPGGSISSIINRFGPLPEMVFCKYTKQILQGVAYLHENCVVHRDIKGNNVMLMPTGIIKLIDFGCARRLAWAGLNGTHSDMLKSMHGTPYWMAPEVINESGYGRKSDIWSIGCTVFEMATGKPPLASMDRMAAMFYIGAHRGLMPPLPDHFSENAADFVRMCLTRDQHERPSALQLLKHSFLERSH
Excerpt: (§1) Supplemental Table S2. scanMAXSM Kinome Assay Results. Complete tabulated data of all 468 kinases from the panel, including
(§2) 403 wild-type and 65 mutant isoforms. […] Cmpd 11 and Cmpd 24

[2] = biological target: T2, PDGFRB (Homo sapiens, UniProt P09619); conditions: read-out: % Control; for remaining binding at 1 µM: 1000 nM
T2 construct: purchased DiscoverX scanMAX
T2 sequence (P09619 33-1106): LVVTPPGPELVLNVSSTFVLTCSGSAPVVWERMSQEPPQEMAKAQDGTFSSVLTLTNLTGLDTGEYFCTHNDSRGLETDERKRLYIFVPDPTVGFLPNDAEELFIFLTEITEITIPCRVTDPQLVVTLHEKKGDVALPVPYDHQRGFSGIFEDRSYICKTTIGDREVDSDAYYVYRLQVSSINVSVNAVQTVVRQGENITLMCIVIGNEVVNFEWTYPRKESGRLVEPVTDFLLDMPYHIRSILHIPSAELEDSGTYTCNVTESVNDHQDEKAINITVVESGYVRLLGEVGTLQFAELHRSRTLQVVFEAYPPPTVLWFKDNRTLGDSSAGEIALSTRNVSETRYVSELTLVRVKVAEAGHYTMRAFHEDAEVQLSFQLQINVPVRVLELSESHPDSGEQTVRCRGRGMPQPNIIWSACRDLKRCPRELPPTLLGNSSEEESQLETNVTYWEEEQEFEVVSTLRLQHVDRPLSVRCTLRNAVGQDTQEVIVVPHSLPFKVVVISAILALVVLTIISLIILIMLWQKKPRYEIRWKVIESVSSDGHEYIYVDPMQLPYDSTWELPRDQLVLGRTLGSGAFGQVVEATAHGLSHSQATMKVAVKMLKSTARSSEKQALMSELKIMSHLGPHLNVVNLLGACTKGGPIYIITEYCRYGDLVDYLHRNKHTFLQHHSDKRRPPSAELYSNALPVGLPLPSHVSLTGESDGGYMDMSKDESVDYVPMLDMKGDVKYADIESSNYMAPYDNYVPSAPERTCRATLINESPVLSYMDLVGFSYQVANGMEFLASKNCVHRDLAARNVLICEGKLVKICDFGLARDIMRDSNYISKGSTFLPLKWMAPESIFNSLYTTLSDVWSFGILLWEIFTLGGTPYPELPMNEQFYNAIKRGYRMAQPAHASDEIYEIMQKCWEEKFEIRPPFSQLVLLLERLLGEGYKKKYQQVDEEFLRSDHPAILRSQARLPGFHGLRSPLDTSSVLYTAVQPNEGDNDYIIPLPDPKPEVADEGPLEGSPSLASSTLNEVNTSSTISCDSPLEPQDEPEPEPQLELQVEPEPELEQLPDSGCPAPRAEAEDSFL
Excerpt: as §1, §2

[3] = biological target: T3, RIOK2 (Homo sapiens, UniProt Q9BVS4); conditions: read-out: % Control; for remaining binding at 1 µM: 1000 nM
T3 construct: purchased DiscoverX (scanMAX panel)
T3 sequence (Q9BVS4 whole entry): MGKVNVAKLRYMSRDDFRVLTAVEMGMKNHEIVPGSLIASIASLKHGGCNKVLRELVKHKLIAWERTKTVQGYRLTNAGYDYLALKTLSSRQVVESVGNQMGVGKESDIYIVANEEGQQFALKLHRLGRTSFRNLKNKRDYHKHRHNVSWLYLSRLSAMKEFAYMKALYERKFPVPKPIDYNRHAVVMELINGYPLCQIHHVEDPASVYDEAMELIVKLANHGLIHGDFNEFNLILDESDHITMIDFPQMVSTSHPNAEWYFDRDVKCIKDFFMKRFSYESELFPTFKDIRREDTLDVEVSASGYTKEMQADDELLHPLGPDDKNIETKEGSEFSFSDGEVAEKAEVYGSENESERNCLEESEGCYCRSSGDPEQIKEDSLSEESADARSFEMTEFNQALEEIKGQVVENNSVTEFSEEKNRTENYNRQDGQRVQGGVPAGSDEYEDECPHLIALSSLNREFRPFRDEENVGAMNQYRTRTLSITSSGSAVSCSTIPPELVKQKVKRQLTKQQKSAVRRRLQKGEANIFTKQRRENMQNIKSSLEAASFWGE
Excerpt: as §1, §2

[4] = biological target: T4, GCN2(Kin.Dom.2,S808G) (Homo sapiens, UniProt Q9P2K8, S808G); conditions: read-out: % Control; for remaining binding at 1 µM: 1000 nM
T4 construct: GCN2(Kin.Dom.2,S808G); purchased DiscoverX scanMAX
T4 sequence (Q9P2K8 590-1001 S808G limits assumed): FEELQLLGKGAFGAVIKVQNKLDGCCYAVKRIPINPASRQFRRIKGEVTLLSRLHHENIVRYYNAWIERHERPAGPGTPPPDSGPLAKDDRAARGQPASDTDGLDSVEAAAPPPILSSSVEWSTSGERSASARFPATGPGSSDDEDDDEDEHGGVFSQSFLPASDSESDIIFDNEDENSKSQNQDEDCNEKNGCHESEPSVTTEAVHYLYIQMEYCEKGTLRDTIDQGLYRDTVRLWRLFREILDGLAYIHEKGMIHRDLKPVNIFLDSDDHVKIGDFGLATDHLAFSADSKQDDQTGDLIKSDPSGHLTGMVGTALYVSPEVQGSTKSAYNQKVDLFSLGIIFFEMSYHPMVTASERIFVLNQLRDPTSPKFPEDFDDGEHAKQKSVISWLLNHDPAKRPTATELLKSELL
Excerpt: as §1, §2

[5] = test system: FLT3(ITD,F691L)
Excerpt: as §1, §2

[6] = biological target: T5, VRK2 (Homo sapiens, UniProt Q86Y07); conditions: read-out: % Control; for remaining binding at 1 µM: 1000 nM
T5 construct: purchased DiscoverX (scanMAX panel)
T5 sequence (Q86Y07 whole entry): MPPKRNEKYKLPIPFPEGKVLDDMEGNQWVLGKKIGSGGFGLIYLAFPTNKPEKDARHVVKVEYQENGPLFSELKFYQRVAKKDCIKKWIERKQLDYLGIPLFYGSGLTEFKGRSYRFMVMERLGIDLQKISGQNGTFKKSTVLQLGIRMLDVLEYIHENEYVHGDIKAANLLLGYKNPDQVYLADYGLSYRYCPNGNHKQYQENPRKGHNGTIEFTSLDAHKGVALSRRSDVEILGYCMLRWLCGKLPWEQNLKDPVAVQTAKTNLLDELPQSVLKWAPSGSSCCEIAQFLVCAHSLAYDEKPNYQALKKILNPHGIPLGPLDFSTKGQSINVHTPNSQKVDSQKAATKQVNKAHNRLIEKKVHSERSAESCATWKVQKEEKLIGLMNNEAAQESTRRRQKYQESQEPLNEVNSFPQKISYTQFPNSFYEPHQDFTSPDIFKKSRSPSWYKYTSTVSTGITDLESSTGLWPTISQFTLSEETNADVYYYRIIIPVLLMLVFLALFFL
Excerpt: as §1, §2

[7] = biological target: T6, PIP5K1C (Homo sapiens, UniProt O60331); conditions: read-out: % Control; for remaining binding at 1 µM: 1000 nM
T6 construct: purchased DiscoverX scanMAX
T6 sequence (O60331 whole entry): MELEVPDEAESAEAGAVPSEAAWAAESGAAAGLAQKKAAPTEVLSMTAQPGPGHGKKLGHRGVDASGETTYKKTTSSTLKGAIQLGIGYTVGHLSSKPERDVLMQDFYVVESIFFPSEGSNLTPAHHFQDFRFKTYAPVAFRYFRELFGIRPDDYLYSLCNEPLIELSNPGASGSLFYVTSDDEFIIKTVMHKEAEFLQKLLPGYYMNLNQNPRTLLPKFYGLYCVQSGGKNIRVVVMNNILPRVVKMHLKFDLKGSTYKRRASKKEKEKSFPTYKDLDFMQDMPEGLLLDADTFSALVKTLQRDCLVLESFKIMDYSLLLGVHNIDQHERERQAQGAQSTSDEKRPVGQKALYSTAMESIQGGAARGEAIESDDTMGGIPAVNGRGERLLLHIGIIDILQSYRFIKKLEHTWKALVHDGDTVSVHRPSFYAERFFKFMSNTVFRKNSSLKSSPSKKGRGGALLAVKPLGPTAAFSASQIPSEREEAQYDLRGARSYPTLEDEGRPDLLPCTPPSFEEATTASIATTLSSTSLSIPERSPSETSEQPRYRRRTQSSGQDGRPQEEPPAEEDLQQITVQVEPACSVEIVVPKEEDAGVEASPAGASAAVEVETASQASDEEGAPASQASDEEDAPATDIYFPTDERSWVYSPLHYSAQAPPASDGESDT
Excerpt: as §1, §2

[8] = biological target: T7, DDR1 (Homo sapiens, UniProt Q08345); conditions: read-out: % Control; for remaining binding at 1 µM: 1000 nM
T7 construct: purchased DiscoverX scanMAX
T7 sequence (Q08345 19-913): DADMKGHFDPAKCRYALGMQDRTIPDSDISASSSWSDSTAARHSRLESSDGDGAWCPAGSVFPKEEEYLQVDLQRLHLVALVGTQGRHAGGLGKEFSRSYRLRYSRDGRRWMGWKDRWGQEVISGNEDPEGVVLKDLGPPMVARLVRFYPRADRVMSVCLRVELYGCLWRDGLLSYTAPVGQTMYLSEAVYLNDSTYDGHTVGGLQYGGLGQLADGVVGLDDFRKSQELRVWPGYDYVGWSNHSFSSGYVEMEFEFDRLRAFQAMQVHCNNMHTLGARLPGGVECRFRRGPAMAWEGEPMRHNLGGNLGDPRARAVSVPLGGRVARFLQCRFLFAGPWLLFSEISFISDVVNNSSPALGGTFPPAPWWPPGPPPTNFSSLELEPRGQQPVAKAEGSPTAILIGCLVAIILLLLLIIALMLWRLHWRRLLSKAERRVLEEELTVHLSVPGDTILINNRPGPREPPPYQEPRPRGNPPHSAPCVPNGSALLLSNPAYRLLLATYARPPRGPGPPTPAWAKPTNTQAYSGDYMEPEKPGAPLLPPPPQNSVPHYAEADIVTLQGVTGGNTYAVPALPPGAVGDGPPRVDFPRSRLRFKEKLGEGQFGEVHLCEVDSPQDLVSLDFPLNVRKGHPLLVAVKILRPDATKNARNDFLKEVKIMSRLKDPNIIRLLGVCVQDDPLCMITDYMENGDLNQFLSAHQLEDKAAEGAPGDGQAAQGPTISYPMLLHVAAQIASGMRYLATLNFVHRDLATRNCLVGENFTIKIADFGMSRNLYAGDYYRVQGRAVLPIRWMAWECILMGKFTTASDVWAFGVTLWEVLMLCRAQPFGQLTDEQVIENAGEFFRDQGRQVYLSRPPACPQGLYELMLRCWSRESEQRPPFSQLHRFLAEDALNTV
Excerpt: as §1, §2

[9] = biological target: T8, KIT(V559D) (Homo sapiens, UniProt P10721, V559D); conditions: read-out: % Control; for remaining binding at 1 µM: 1000 nM
T8 construct: purchased DiscoverX scanMAX
T8 sequence (P10721 26-976 V559D): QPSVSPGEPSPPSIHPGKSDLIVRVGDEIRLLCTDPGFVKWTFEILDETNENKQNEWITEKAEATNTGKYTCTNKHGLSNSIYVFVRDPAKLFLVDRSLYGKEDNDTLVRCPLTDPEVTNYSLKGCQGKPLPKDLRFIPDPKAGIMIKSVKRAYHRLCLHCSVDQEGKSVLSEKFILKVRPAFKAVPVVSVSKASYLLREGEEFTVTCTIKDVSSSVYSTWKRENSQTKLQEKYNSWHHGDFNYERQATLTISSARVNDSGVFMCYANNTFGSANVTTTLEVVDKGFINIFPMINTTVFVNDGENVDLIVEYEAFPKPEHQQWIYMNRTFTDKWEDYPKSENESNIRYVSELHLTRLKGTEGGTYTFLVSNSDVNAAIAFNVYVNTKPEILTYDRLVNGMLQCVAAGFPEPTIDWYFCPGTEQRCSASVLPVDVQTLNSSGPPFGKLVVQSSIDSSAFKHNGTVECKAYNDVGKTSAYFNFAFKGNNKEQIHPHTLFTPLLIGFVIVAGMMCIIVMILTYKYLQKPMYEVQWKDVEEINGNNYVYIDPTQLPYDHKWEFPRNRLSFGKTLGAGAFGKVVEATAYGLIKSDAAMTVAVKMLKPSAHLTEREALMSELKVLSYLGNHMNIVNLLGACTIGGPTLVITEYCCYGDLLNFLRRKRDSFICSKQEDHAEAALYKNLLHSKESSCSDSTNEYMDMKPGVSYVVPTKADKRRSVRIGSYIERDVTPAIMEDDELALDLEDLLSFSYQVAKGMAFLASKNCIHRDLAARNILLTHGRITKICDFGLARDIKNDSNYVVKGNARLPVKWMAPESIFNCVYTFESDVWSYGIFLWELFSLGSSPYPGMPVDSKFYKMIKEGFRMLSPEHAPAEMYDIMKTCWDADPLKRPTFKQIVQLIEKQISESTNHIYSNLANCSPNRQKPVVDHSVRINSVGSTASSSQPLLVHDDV
Excerpt: as §1, §2

**Q.** What does the source list for `Cc1nc(N)c2c(-c3ccc(NC(=O)[C@H](O)c4cccc(F)c4)cc3C)cn(C)c2n1` [Compound 24]?
**A.** remaining binding at 1 µM [1]: 100%; remaining binding at 1 µM [2]: 100%; remaining binding at 1 µM [3]: 89%; remaining binding at 1 µM [4]: 100%; % Control ([5]; 1000 nM): 63%; remaining binding at 1 µM [6]: 100%; remaining binding at 1 µM [7]: 34%; remaining binding at 1 µM [8]: 100%; remaining binding at 1 µM [9]: 72%

**Q.** `Cc1cc(NC(=O)[C@H](O)c2cccc(F)c2)ccc1-c1cn(C)c2ncnc(N)c12` [Compound 11, (R)-N-(4-(4-amino-7-methyl-7H-pyrrolo[2,3-d]pyrimidin-5-yl)-3-methylphenyl)-2-(3-fluorophenyl)-2-hydroxy acetamide] was tested. Which remaining binding at 1 µM [1] did it give?
**A.** Its remaining binding at 1 µM is 18%.

**Q.** What about the remaining binding at 1 µM [2] of the same compound?
**A.** The remaining binding at 1 µM was 40%.

**Q.** What about the remaining binding at 1 µM [3] of the same compound?
**A.** The remaining binding at 1 µM was 20%.

**Q.** What about the remaining binding at 1 µM [4] of the same compound?
**A.** The remaining binding at 1 µM was 84%.

**Q.** What about the “% Control” value ([5]; 1000 nM) of the same compound?
**A.** The value was 100%.

**Q.** What about the remaining binding at 1 µM [6] of the same compound?
**A.** The remaining binding at 1 µM was 26%.

**Q.** And the remaining binding at 1 µM [7]?
**A.** The remaining binding at 1 µM was 99%.

**Q.** What about the remaining binding at 1 µM [8] of the same compound?
**A.** Its remaining binding at 1 µM is 72%.

**Q.** And the remaining binding at 1 µM [9]?
**A.** The remaining binding at 1 µM was 27%.

**Q.** `Cc1nc(N)c2c(-c3ccc(NC(=O)[C@H](O)c4cccc(C(F)(F)F)c4)cc3C)cn(C)c2n1` [Compound 26] was tested. Which remaining binding at 0.1 µM ([1]; 100 nM) did it give?
**A.** The remaining binding at 0.1 µM was 95%.

**Q.** What about the remaining binding at 1 µM [1] of the same compound?
**A.** The remaining binding at 1 µM was 55%.

**Q.** What about the remaining binding at 0.1 µM ([2]; 100 nM) of the same compound?
**A.** Its remaining binding at 0.1 µM is 100%.

**Q.** What about the remaining binding at 1 µM [2] of the same compound?
**A.** Its remaining binding at 1 µM is 11%.

**Q.** What about the remaining binding at 0.1 µM ([3]; 100 nM) of the same compound?
**A.** The remaining binding at 0.1 µM was 91%.

**Q.** And the remaining binding at 1 µM [3]?
**A.** The remaining binding at 1 µM was 92%.

**Q.** And the remaining binding at 0.1 µM ([4]; 100 nM)?
**A.** The remaining binding at 0.1 µM was 76%.

**Q.** And the remaining binding at 1 µM [4]?
**A.** The remaining binding at 1 µM was 94%.

**Q.** What about the “% Control” value ([5]; 100 nM) of the same compound?
**A.** Its value is 41%.

**Q.** What about the “% Control” value ([5]; 1000 nM) of the same compound?
**A.** The value was 42%.

**Q.** And the remaining binding at 0.1 µM ([6]; 100 nM)?
**A.** The remaining binding at 0.1 µM was 94%.

**Q.** What about the remaining binding at 1 µM [6] of the same compound?
**A.** Its remaining binding at 1 µM is 78%.

**Q.** And the remaining binding at 0.1 µM ([7]; 100 nM)?
**A.** The remaining binding at 0.1 µM was 100%.

**Q.** What about the remaining binding at 1 µM [7] of the same compound?
**A.** Its remaining binding at 1 µM is 91%.

**Q.** And the remaining binding at 0.1 µM ([8]; 100 nM)?
**A.** The remaining binding at 0.1 µM was 100%.

**Q.** What about the remaining binding at 1 µM [8] of the same compound?
**A.** The remaining binding at 1 µM was 29%.

**Q.** And the remaining binding at 0.1 µM ([9]; 100 nM)?
**A.** Its remaining binding at 0.1 µM is 96%.

**Q.** And the remaining binding at 1 µM [9]?
**A.** The remaining binding at 1 µM was 0.45%.
